Experimental data from patent US20220380383A1, “NEUROPROTECTIVE PDI MODULATING SMALL MOLECULES AND METHODS OF USE THEREOF” (THE TRUSTEES OF COLUMBIA UNIVERSITY IN THE CITY OF NEW YORK, priority 2018, published 2022).
“Also recorded” adds a separate entry of the source.

Legend:
[1] = test system: striatal medium spiny neurons in brain slice explants co-transfected with YFP and mHTT; assay: HD brain slice assay; type: cell-based, rat
Procedure: Resonances with large chemical shifts are labeled in green. Rat coronal brain slice explants co-transfected with YFP and Tau-4R (FIG. 16B) or striatal brain slice explants co-transfected with YFP and mHTT (FIG. 16C) were treated with LC-43 or DMSO carrier-only for 3 days. The respective regions of each brain slice were then scored for numbers of healthy (FIG. 16B) pyramidal or (FIG. 16C) medium spiny neurons remaining. Data are normalized to the negative control condition set to 100% and plotted as means±SEM. In FIG. 16D, The confocal images shown are maximal z-stacks of 0.5 μm steps (˜20 images per stack). (Bottom) Reduction of neuronal redox state by LC-43. Left, Primary neurons were co-transfected with mCherry (to positively identify transfected neurons) and the genetically encoded ratiometric redox reporter roGFP2. Four days later, the culture medium was changed into an identical formulation except without conventional antioxidant additives. […]
Brain slice explants were prepared and transfected as previously described (Reinhart et al., 2011). […] Striatal medium spiny neurons (MSNs) expressing YFP were visualized under fluorescence microscopy and identified based on their location within brain slices and their characteristic morphology.

[2] = test system: neuronal redox state (roGFP2); assay: roGFP2 redox reporter in primary neurons; type: cell-based
Procedure: […]. Rat coronal brain slice explants co-transfected with YFP and Tau-4R (FIG. 16B) or striatal brain slice explants co-transfected with YFP and mHTT (FIG. 16C) were treated with LC-43 or DMSO carrier-only for 3 days. The respective regions of each brain slice were then scored for numbers of healthy (FIG. 16B) pyramidal or (FIG. 16C) medium spiny neurons remaining. Data are normalized to the negative control condition set to 100% and plotted as means±SEM. In FIG. 16D, The confocal images shown are maximal z-stacks of 0.5 μm steps (˜20 images per stack). (Bottom) Reduction of neuronal redox state by LC-43. Left, Primary neurons were co-transfected with mCherry (to positively identify transfected neurons) and the genetically encoded ratiometric redox reporter roGFP2. Four days later, the culture medium was changed into an identical formulation except without conventional antioxidant additives. 24 hours after this medium change, LOC-43 or DMSO carrier-only were added to the neurons and images were taken after 30 minutes or 24 hours of treatment as indicated. Imaging was done using a Leica SP5 inverted confocal microscope through a 63× water-immersion objective. Images of 40 individual neurons for each condition were collected at 405 and 488 nm and analysis of the 405/488 ratio for each image pair was done using CellProfiler (Broad Institute).
As mentioned, we synthesized several fluorine-containing analogs of LOC14 (analogs LC-43 and LC-40). Addition of fluorine was the only modification that was tolerated at the ortho position without a complete loss of activity in cells and in targeting PDI in vitro (Table 9). […] Additionally, we evaluated LC-43 using a genetically encoded redox reporter transfected into neurons. […] In contrast, treatment with the non-selective reducing agent dithiothreitol (DTT) produces an immediate and dramatic reduction in the roGFP2 fluorescence ratio that leads rapidly to cell degeneration and death (FIG. 16D). […]

[3] = test system: cortical pyramidal neurons in rat coronal brain slice explants co-transfected with YFP and Tau-4R; assay: AD brain slice model (Tau-4R); type: cell-based
Text: The cortical regions of each brain slice were then scored for numbers of healthy pyramidal neurons remaining. Data are plotted as means±SEM. Graph represents an average of 3 independent experimental runs. Significant difference is denoted with * with respect to the Tau-4R condition by ANOVA followed by Dunnett's post hoc comparison test at p<0.05.
To see if the mechanism of LOC14 protection can ameliorate other neurodegenerative disease phenotypes, we used a brain slice model of Alzheimer's disease (AD) in which the degeneration of cortical pyramidal neurons is induced via transfected tau protein containing four repeats of the microtubulin-binding domain (Tau-4R). Rat coronal brain slice explants were co-transfected with YFP and Tau-4R and treated with LOC14, benzoisothiazolone, or DMSO vehicle-only for 3 days. The cortical region of each brain slice was then scored for number of healthy pyramidal neurons remaining.

wild-type PDIa = biological target: T1, wild-type PDIa (Homo sapiens, UniProt P07237); assay: MALDI-TOF mass spectrometry with wild-type PDIa; type: binding
T1 construct: made in house; host or cells: Escherichia coli BL21-Gold (DE3)
Text: As mentioned, we synthesized several fluorine-containing analogs of LOC14 (analogs LC-43 and LC-40). Addition of fluorine was the only modification that was tolerated at the ortho position without a complete loss of activity in cells and in targeting PDI in vitro (Table 9). […] We hypothesized that these compounds might be binding to PDI covalently, and therefore would not show heat evolution by calorimetry. To test this hypothesis, we conducted MALDI-TOF mass-spectrometry experiments with wild-type PDIa and LC-43. […] This confirmed that LC-43 did indeed bind to PDIa, and that this binding was […]. The lack of binding by ITC might be again caused because LC-43 interaction with PDI is entropy-driven with small enthalpic changes. […] Additionally, we evaluated LC-43 using a genetically encoded redox reporter transfected into neurons. […] In contrast, treatment with the non-selective reducing agent dithiothreitol (DTT) produces an immediate and dramatic reduction in the roGFP2 fluorescence ratio that leads rapidly to cell degeneration and death (FIG. 16D). […] This single fluorine atom substitution in LOC14 structure seems to be an improvement in the design of compounds with more favorable drug properties.

PDE3A = biological target: T2, PDE3A (Homo sapiens, UniProt Q14432); assay: Safety47 panel non-kinase enzyme PDE3A; type: biochemical; conditions: Inhibitor mode; 3 μM
T2 construct: CEREP (CRO panel)
Text: (§1) LOC14 was also submitted for testing in CEREP's Safety47 panel. CEREP is a CRO specializing in preclinical research, discovery and development of new pharmaceutical drugs.

CYP1A2 = biological target: T3, CYP1A2 (Homo sapiens, UniProt P05177); assay: CYP450 inhibition, CYP1A2; type: in vitro ADME; conditions: high concentration of 30 μM
T3 construct: Cyprotex (CRO)

ADORA2A = biological target: T4, ADORA2A (Homo sapiens, UniProt P29274); assay: Safety47 panel GPCR ADORA2A; type: cell-based; conditions: 3 μM
T4 construct: CEREP (CRO that ran the panel)
Text: as §1

VEGFR2 = biological target: T5, VEGFR2 (Homo sapiens, UniProt P35968); assay: Safety47 panel kinase VEGFR2; type: biochemical; conditions: Inhibitor mode; 3 μM
T5 construct: CEREP (CRO, Safety47 panel)
Text: as §1

NET = biological target: T6, NET (Homo sapiens, UniProt P23975); assay: Safety47 panel transporter NET; type: cell-based; conditions: Blocker mode; 3 μM
T6 construct: CEREP (CRO panel)
Text: as §1

AR = biological target: T7, AR (Homo sapiens, UniProt P10275); assay: Safety47 panel nuclear hormone receptor AR; type: cell-based; conditions: 3 μM
T7 construct: CEREP (CRO panel)
Text: as §1

KvLQT1/minK = biological target: T8, KvLQT1/minK (Homo sapiens, UniProt P51787); assay: Safety47 panel ion channel KvLQT1/minK; type: cell-based; conditions: 3 μM
T8 construct: CEREP (CRO panel)
Text: as §1

CAV1.2 = biological target: T9, CAV1.2 (Homo sapiens, UniProt Q13936); assay: Safety47 panel ion channel CAV1.2; type: cell-based; conditions: Blocker mode; 3 μM
T9 construct: CEREP (CRO panel)
Text: as §1

Prostanoid EP4 = Prostanoid EP4 (Homo sapiens, UniProt P35408); assay: Off-target panel, Prostanoid EP4; type: binding; conditions: Conc. 3 μM
PDE4D2 = biological target: T10, PDE4D2 (Homo sapiens, UniProt Q08499); assay: Safety47 panel non-kinase enzyme PDE4D2; type: biochemical; conditions: Inhibitor mode; 3 μM
T10 construct: CEREP (CRO panel)
Text: as §1

T4 sequence (P29274 whole entry): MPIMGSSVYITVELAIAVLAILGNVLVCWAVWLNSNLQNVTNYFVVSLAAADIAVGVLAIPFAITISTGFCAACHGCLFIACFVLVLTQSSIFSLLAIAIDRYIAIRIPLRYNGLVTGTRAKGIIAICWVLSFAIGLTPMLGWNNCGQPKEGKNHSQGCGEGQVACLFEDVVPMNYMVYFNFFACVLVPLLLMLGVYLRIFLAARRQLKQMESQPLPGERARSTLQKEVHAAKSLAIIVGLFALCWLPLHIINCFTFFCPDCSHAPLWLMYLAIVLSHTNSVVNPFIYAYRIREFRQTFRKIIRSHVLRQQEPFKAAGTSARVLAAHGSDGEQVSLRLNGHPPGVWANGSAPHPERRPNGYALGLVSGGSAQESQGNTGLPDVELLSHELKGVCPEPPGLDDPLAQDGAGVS
T7 sequence (P10275 whole entry): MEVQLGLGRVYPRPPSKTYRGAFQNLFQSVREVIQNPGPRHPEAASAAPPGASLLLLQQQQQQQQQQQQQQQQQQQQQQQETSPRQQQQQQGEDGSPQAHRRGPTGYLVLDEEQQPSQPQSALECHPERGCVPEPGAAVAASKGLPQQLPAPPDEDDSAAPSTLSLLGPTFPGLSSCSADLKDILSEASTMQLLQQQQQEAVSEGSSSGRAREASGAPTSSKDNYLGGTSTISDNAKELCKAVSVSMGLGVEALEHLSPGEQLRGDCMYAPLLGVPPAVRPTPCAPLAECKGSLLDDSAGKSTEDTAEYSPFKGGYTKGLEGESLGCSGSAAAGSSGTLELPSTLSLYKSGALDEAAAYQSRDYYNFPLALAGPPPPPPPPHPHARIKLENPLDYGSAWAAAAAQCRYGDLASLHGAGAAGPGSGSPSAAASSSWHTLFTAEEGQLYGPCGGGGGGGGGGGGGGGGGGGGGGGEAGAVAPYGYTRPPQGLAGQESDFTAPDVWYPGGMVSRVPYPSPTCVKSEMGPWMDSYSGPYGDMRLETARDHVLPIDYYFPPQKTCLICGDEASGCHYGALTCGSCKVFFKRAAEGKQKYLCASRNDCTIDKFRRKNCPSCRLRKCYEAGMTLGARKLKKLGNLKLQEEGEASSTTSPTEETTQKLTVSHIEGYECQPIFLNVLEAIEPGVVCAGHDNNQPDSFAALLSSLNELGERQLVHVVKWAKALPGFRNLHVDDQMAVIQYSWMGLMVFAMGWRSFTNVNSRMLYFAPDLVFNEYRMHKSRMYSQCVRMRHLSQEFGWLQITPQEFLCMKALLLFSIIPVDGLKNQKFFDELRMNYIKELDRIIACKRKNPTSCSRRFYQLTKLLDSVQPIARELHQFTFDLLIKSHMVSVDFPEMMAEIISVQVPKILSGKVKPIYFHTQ
T3 sequence (P05177 whole entry): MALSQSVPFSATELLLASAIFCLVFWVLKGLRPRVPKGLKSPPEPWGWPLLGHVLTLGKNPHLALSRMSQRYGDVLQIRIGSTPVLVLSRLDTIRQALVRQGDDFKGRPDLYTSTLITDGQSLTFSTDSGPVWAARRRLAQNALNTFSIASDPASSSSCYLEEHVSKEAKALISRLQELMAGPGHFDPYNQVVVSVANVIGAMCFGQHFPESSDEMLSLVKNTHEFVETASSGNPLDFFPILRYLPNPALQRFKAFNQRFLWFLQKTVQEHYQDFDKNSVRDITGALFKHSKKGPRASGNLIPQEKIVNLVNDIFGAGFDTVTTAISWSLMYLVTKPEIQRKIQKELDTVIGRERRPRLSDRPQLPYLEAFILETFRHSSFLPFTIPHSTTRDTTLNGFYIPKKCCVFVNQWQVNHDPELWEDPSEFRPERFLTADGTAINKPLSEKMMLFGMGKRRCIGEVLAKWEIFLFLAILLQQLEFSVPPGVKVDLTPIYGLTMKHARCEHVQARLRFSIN
Chain of Prostanoid EP4 (P35408 whole entry): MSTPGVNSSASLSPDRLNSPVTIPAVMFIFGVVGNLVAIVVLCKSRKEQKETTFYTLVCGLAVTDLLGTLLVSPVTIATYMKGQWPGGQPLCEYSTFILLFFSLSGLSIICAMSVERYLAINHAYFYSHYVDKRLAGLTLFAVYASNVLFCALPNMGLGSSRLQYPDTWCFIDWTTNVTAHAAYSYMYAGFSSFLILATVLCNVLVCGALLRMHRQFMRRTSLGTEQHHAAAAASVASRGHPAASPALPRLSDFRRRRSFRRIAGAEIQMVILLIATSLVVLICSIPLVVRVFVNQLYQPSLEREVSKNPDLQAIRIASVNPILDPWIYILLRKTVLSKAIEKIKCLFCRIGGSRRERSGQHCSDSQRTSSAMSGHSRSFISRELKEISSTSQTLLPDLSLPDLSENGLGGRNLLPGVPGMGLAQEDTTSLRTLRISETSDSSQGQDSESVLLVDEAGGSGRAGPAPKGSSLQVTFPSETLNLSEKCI
T2 sequence (Q14432 whole entry): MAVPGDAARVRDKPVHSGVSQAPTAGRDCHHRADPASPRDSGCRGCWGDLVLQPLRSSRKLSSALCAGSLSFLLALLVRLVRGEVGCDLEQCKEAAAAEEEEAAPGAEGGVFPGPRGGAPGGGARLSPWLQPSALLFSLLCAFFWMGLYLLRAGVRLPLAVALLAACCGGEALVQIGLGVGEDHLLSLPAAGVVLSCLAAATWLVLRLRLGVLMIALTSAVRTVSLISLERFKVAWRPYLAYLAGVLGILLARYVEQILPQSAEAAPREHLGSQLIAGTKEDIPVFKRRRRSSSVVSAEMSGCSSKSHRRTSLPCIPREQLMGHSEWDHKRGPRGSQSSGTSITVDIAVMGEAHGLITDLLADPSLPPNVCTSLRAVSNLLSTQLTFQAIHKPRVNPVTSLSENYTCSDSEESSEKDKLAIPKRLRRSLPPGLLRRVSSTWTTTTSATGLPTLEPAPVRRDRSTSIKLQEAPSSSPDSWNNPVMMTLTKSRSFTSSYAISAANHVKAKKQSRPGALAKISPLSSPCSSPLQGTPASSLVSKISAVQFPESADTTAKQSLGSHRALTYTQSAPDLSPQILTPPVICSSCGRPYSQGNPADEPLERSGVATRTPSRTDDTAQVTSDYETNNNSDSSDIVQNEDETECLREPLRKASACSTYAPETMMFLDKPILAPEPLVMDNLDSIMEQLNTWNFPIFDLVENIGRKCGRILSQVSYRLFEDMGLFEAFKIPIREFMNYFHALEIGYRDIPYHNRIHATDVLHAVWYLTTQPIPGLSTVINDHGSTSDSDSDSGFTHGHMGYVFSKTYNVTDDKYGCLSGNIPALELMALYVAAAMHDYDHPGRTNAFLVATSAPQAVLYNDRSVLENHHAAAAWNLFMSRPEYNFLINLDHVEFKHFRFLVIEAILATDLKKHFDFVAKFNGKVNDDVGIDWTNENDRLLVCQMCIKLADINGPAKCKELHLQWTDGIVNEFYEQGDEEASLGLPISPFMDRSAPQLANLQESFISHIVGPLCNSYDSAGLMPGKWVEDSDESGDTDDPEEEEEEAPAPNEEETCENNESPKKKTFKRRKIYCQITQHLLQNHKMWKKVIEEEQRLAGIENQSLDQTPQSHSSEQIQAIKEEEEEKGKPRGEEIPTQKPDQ
T5 sequence (P35968 20-1356): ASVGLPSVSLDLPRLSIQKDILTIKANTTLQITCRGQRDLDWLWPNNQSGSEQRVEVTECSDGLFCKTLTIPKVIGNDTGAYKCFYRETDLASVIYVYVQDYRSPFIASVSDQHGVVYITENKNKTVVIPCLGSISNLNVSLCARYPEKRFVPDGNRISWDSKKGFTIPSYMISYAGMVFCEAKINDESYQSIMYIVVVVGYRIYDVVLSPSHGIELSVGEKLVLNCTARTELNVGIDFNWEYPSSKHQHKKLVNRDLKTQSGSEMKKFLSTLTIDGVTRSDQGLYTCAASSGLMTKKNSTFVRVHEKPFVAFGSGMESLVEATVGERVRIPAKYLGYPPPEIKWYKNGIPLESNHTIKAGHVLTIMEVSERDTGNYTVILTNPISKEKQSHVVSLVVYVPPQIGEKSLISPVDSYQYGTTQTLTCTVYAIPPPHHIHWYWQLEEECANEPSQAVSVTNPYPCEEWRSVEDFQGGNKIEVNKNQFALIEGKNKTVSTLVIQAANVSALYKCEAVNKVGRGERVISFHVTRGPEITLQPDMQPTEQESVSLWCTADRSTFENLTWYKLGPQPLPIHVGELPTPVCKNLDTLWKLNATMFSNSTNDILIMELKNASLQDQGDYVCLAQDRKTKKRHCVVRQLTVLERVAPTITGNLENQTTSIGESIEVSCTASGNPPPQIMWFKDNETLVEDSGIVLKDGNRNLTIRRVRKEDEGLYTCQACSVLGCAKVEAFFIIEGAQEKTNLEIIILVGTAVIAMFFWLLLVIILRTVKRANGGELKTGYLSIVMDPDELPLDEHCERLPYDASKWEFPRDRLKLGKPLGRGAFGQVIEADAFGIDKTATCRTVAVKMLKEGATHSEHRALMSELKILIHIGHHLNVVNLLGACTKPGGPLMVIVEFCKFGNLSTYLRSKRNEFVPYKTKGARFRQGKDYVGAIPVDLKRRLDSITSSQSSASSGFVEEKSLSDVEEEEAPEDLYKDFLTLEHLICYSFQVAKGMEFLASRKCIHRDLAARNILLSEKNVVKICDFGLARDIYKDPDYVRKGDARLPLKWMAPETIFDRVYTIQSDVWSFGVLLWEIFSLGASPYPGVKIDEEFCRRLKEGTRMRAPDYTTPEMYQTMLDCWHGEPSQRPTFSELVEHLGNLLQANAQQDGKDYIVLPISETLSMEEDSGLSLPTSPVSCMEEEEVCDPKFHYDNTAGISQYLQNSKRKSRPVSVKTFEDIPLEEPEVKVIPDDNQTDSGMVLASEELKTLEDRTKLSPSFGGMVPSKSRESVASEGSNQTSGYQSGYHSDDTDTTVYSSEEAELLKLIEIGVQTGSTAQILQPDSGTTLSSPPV
T1 sequence (P07237 18-134): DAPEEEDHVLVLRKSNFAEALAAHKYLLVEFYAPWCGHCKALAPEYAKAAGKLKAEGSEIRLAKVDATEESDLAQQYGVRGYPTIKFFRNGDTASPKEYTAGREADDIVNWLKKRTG

SMILES	rescue of medium spiny neurons in HD brain slice ([1]; 3 days treatment)	concentration that provided peak rescue ([1]; HD brain slice assay) [µM]	neuronal redox state (roGFP2) ([2]; 30 min treatment)	neuronal redox state (roGFP2) ([2]; 24 h treatment, 10 μM)	protection of pyramidal neurons in AD brain slice ([3]; 3 days treatment)	concentration that provided peak rescue ([3]; AD brain slice assay) [µM]	change in mass of wild-type PDIa (MALDI-TOF) (wild-type PDIa)	Average (PDE3A)	inhibition of CYP1A2 (CYP1A2)	Average % Response (ADORA2A; Agonist mode) [%]	Average % Response (ADORA2A; Antagonist mode) [%]	Average (VEGFR2)	Average (NET)	Average (AR; Agonist mode)	Average (AR; Antagonist mode)	Average (KvLQT1/minK; Blocker mode)	Average (KvLQT1/minK; Opener mode)	Average (CAV1.2)	inhibition at 3 µM (Prostanoid EP4) [%]	Average (PDE4D2)
O=C(C1CC1)N1CCN(Cn2sc3c(F)cccc3c2=O)CC1 [LC-43]	dose-dependent rescue; also recorded: robust neuroprotection	10	no effect	measurable and significant reduction in neuronal redox state	dose-dependent rescue; also recorded: robust neuroprotection	10	no change in mass	–	–	–	–	–	–	–	–	–	–	–	–	–
O=C(C1CC1)N1CCN(Cn2sc3ccccc3c2=O)CC1 [LOC14]	–	–	–	–	–	–	–	0.0	inhibits	2.6	2.4	17.2	0.0	0.0	5.4	0.0	9.8	1.2	32	0.0
